Results on 13 compounds are retold here after patent publication US11957759B1, “Rapidly accelerated fibrosarcoma (RAF) degrading compounds and associated methods of use” (Arvinas Operations, Inc., priority 2022, dated 2024).

The target of one assay is T1, B-RAF V600E (Homo sapiens, UniProt P15056, V600E).
T1 construct: expressed in transfected cells; host or cells: T-Rex 293 cells (Invitrogen #R71007)
The assay can be described thus: Target protein degradation, assay C: T-Rex 293 cells, HA-BRAF_V600E, 384 well format. Conditions: T-Rex 293 HA-BRAF_V600E cells, 24 hours, Examples 83-269; for DC50: Assay C; for Dmax: T-REx-293, Assay C. Type of assay: cell-based. A digest of the protocol:
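After 24 h exposure to an 11-point 1:3 series (300 nM–5 pM, 0.5% DMSO), fixed T-Rex 293 cells carrying HA-BRAF V600E (induced with 1 ng/mL doxycycline) were stained anti-HA and imaged. DC50 and Dmax were derived from BRAF intensity relative to control, and cytotoxicity from nuclear counts.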

Another assay deals with T2, B-RAF G466V (Homo sapiens, UniProt P15056, G466V).
T2 construct: expressed in transfected cells; host or cells: T-Rex 293 cells (Invitrogen #R71007)
T2 sequence (P15056 whole entry G466V): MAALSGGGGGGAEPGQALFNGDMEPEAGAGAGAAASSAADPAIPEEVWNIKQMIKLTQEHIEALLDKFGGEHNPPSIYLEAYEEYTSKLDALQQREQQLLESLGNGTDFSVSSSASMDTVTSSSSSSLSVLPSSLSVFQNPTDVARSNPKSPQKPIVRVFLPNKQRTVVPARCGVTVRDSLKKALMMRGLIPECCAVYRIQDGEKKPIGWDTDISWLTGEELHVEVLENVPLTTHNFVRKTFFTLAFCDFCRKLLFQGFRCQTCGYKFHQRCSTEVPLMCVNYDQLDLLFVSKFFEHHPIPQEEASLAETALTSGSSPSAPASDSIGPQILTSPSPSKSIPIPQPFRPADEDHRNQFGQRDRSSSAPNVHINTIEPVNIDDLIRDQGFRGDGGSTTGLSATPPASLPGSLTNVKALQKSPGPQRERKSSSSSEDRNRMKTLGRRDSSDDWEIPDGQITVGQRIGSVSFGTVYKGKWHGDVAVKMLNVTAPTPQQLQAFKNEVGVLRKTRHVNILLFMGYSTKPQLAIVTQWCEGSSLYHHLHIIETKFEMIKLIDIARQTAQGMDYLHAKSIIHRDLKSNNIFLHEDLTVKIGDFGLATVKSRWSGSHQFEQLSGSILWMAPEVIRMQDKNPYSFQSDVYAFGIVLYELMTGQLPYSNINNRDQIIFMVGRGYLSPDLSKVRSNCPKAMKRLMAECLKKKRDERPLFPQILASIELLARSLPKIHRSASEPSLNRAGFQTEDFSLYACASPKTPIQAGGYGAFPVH
Put plainly: Target protein degradation, assay D: T-Rex 293 cells, HA-BRAF_G466V, 384 well format. The note with it: T-Rex 293 HA-BRAF_G466V cells, 24 hours, Examples 83-269; for DC50: Assay D; for Dmax: T-REx-293, Assay D. The class given is cell-based. A digest of the protocol:
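Degradation measured by high-content imaging of anti-HA immunofluorescence in fixed T-Rex 293 cells carrying inducible HA-BRAF G466V (1 ng/mL doxycycline), after 24 h PROTAC exposure at 37 °C over 300 nM–5 pM (1:3, 11 points, 0.5% DMSO). Outputs DC50 and Dmax as % of control; nuclei counts against DMSO wells gauge toxicity.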

T1 sequence (P15056 whole entry V600E): as the sequence (P15056 whole entry G466V) above, with V466G, V600E counted along it

A word on the DC50: it is the concentration at which degradation of the target reaches its halfway point. By Dmax is commonly meant the greatest extent of degradation seen. Read a high Dmax as deep degradation. As to `N#Cc1c(NS(=O)(=O)N2CC[C@@H](F)C2)ccc(F)c1Oc1ccc2ncn(-c3ccc(N4CC5(CC(CN6CCN(c7ccc8c(c7)CN([C@H]7CCC(=O)NC7=O)C8=O)CC6)C5)C4)cc3)c(=O)c2c1` [Example 191, (3R)-N-(2-cyano-3-{[3-(4-{6-[(4-{2-[(3S)-2,6-dioxopiperidin-3-yl]-1-oxo-2,3-dihydro-1H-isoindol-5-yl}piperazin-1-yl)methyl]-2-azaspiro[3.3]heptan-2-yl}phenyl)-4-oxo-3,4-dihydroquinazolin-6-yl]oxy}-4-fluorophenyl)-3-fluoropyrrolidine-1-sulfonamide], at B-RAF V600E, the DC50 was 50 to 500 nM and the greatest degradation seen (Dmax) was in the range of 35 to 70%. In addition, on B-RAF G466V, the DC50 was in the range of 1 to 10 nM and the Dmax was in the range of 35 to 70%.
On B-RAF V600E, `N#Cc1c(NS(=O)(=O)N2CC[C@@H](F)C2)ccc(F)c1Oc1ccc2ncn(-c3ccc(N4CC5(CCN(CC6CCN(c7ccc8c(c7)CN([C@H]7CCC(=O)NC7=O)C8=O)CC6)CC5)C4)cc3)c(=O)c2c1` [Example 192, (3R)-N-(2-cyano-3-{[3-(4-{7-[(1-{2-[(3S)-2,6-dioxopiperidin-3-yl]-1-oxo-2,3-dihydro-1H-isoindol-5-yl}piperidin-4-yl)methyl]-2,7-diazaspiro[3.5]nonan-2-yl}phenyl)-4-oxo-3,4-dihydroquinazolin-6-yl]oxy}-4-fluorophenyl)-3-fluoropyrrolidine-1-sulfonamide] yielded a DC50 of 50 to 500 nM and a Dmax of 35 to 70%. Also, on B-RAF G466V, the DC50 lay in the range of 1 to 10 nM and the Dmax lay within 35 to 70%.
As for `N#Cc1c(NS(=O)(=O)N2CC[C@@H](F)C2)ccc(F)c1Oc1ccc2ncn(-c3ccc(N4CC5(CCN(CC6CCN(c7ccc8c(c7)CN([C@@H]7CCC(=O)NC7=O)C8=O)CC6)CC5)C4)cc3)c(=O)c2c1` [Example 193, (3R)-N-(2-cyano-3-{[3-(4-{7-[(1-{2-[(3R)-2,6-dioxopiperidin-3-yl]-1-oxo-2,3-dihydro-1H-isoindol-5-yl}piperidin-4-yl)methyl]-2,7-diazaspiro[3.5]nonan-2-yl}phenyl)-4-oxo-3,4-dihydroquinazolin-6-yl]oxy}-4-fluorophenyl)-3-fluoropyrrolidine-1-sulfonamide], at B-RAF V600E, the DC50 was 50 to 500 nM and the Dmax was 35 to 70%. Further, on B-RAF G466V, the DC50 lay within 1 to 10 nM and the Dmax was in the range of 35 to 70%.
Regarding `N#Cc1c(NS(=O)(=O)N2CCC(F)C2)ccc(F)c1Oc1ccc2ncn(-c3ccc(N4CCN(CC5CN(c6ccc7c(c6)CN(C6CCC(=O)NC6=O)C7=O)C5)CC4)cc3)c(=O)c2c1` (stereo not shown) [Example 194, N-{2-cyano-3-[(3-{4-[4-({1-[2-(2,6-dioxopiperidin-3-yl)-1-oxo-2,3-dihydro-1H-isoindol-5-yl]azetidin-3-yl}methyl)piperazin-1-yl]phenyl}-4-oxo-3,4-dihydroquinazolin-6-yl)oxy]-4-fluorophenyl}-3-fluoropyrrolidine-1-sulfonamide], the results for the DC50 at B-RAF V600E and on B-RAF G466V were 50 to 500 nM and 1 to 10 nM, respectively. Further, the figures for the Dmax on B-RAF V600E and at B-RAF G466V were at most 35% and 35 to 70%, respectively.
For the compound `N#Cc1c(NS(=O)(=O)N2CC[C@H](F)C2)ccc(F)c1Oc1ccc2ncn(-c3ccc(N4CCN(CC5CN(c6ccc7c(c6)CN([C@H]6CCC(=O)NC6=O)C7=O)C5)CC4)cc3)c(=O)c2c1` [Example 195, (3S)-N-(2-cyano-3-{[3-(4-{4-[(1-{2-[(3S)-2,6-dioxopiperidin-3-yl]-1-oxo-2,3-dihydro-1H-isoindol-5-yl}azetidin-3-yl)methyl]piperazin-1-yl}phenyl)-4-oxo-3,4-dihydroquinazolin-6-yl]oxy}-4-fluorophenyl)-3-fluoropyrrolidine-1-sulfonamide], on B-RAF V600E, the half-maximal degradation concentration (DC50) is 50 to 500 nM and the Dmax is at most 35%. On B-RAF G466V, this compound had a half-maximal degradation concentration (DC50) of 1 to 10 nM and a Dmax of at most 35%.
At B-RAF V600E, `N#Cc1c(NS(=O)(=O)N2CC[C@H](F)C2)ccc(F)c1Oc1ccc2ncn(-c3ccc(N4CCN(CC5CN(c6ccc7c(c6)CN([C@@H]6CCC(=O)NC6=O)C7=O)C5)CC4)cc3)c(=O)c2c1` [Example 196, (3S)-N-(2-cyano-3-{[3-(4-{4-[(1-{2-[(3R)-2,6-dioxopiperidin-3-yl]-1-oxo-2,3-dihydro-1H-isoindol-5-yl}azetidin-3-yl)methyl]piperazin-1-yl}phenyl)-4-oxo-3,4-dihydroquinazolin-6-yl]oxy}-4-fluorophenyl)-3-fluoropyrrolidine-1-sulfonamide] displayed a DC50 of 50 to 500 nM and a Dmax of 35 to 70%. On B-RAF G466V, the DC50 fell in the range of 1 to 10 nM and the Dmax lay within 35 to 70%.
Take `O=C1CCC(N2Cc3cc(N4CCC(CN5CCN(c6ccc(-n7cnc8ccc(Oc9c(F)ccc(NS(=O)(=O)N%10CC[C@@H](F)C%10)c9Cl)cc8c7=O)cc6)CC5)CC4)ccc3C2=O)C(=O)N1` (stereo partly drawn) [Example 199, (3R)-N-{2-chloro-3-[(3-{4-[4-({1-[2-(2,6-dioxopiperidin-3-yl)-1-oxo-2,3-dihydro-1H-isoindol-5-yl]piperidin-4-yl}methyl)piperazin-1-yl]phenyl}-4-oxo-3,4-dihydroquinazolin-6-yl)oxy]-4-fluorophenyl}-3-fluoropyrrolidine-1-sulfonamide]: on B-RAF V600E, the DC50 is 50 to 500 nM and the Dmax lay in the range of 35 to 70%. On B-RAF G466V, this compound yielded a DC50 of 1 to 10 nM and a Dmax of 35 to 70%.
On B-RAF V600E, `N#Cc1c(NS(=O)(=O)N2CC[C@@H](F)C2)ccc(F)c1Oc1ccc2ncn(-c3ccc(N4CCC5(CCN(CC6CCN(c7ccc8c(c7)CN([C@H]7CCC(=O)NC7=O)C8=O)CC6)CC5)CC4)cc3)c(=O)c2c1` [Example 200, (3R)-N-(2-cyano-3-{[3-(4-{9-[(1-{2-[(3S)-2,6-dioxopiperidin-3-yl]-1-oxo-2,3-dihydro-1H-isoindol-5-yl}piperidin-4-yl)methyl]-3,9-diazaspiro[5.5]undecan-3-yl}phenyl)-4-oxo-3,4-dihydroquinazolin-6-yl]oxy}-4-fluorophenyl)-3-fluoropyrrolidine-1-sulfonamide] showed a DC50 of 50 to 500 nM and a Dmax of 35 to 70%. At B-RAF G466V, this compound had a DC50 of 1 to 10 nM and a Dmax of 35 to 70%.
Turning to `N#Cc1c(NS(=O)(=O)N2CC[C@@H](F)C2)ccc(F)c1Oc1ccc2ncn(-c3ccc(N4CCC5(CCN(CC6CCN(c7ccc8c(c7)CN([C@@H]7CCC(=O)NC7=O)C8=O)CC6)CC5)CC4)cc3)c(=O)c2c1` [Example 201, (3R)-N-(2-cyano-3-{[3-(4-{9-[(1-{2-[(3R)-2,6-dioxopiperidin-3-yl]-1-oxo-2,3-dihydro-1H-isoindol-5-yl}piperidin-4-yl)methyl]-3,9-diazaspiro[5.5]undecan-3-yl}phenyl)-4-oxo-3,4-dihydroquinazolin-6-yl]oxy}-4-fluorophenyl)-3-fluoropyrrolidine-1-sulfonamide], at B-RAF V600E, the DC50 lay within 50 to 500 nM and the Dmax lay within 35 to 70%. Also, on B-RAF G466V, the DC50 lay within 1 to 10 nM and the Dmax was 35 to 70%.
Take `N#Cc1c(NS(=O)(=O)N2CC[C@@H](F)C2)ccc(F)c1Oc1ccc2ncn(-c3ccc(N4CCC5(CC4)CN(CC4CCN(c6ccc7c(c6)CN([C@H]6CCC(=O)NC6=O)C7=O)CC4)C5)cc3)c(=O)c2c1` [Example 202, (3R)-N-(2-cyano-3-{[3-(4-{2-[(1-{2-[(3S)-2,6-dioxopiperidin-3-yl]-1-oxo-2,3-dihydro-1H-isoindol-5-yl}piperidin-4-yl)methyl]-2,7-diazaspiro[3.5]nonan-7-yl}phenyl)-4-oxo-3,4-dihydroquinazolin-6-yl]oxy}-4-fluorophenyl)-3-fluoropyrrolidine-1-sulfonamide]: at B-RAF V600E, the DC50 is 50 to 500 nM and the maximal degradation (Dmax) is 35 to 70%. For the same compound, at B-RAF G466V, the DC50 was 1 to 10 nM and the Dmax lay in the range of 35 to 70%.
In the case of `N#Cc1c(NS(=O)(=O)N2CC[C@@H](F)C2)ccc(F)c1Oc1ccc2ncn(-c3ccc(N4CCC5(CC4)CN(CC4CCN(c6ccc7c(c6)CN([C@@H]6CCC(=O)NC6=O)C7=O)CC4)C5)cc3)c(=O)c2c1` [Example 203, (3R)-N-(2-cyano-3-{[3-(4-{2-[(1-{2-[(3R)-2,6-dioxopiperidin-3-yl]-1-oxo-2,3-dihydro-1H-isoindol-5-yl}piperidin-4-yl)methyl]-2,7-diazaspiro[3.5]nonan-7-yl}phenyl)-4-oxo-3,4-dihydroquinazolin-6-yl]oxy}-4-fluorophenyl)-3-fluoropyrrolidine-1-sulfonamide], at B-RAF V600E, the DC50 was in the range of 50 to 500 nM and the Dmax lay in the range of 35 to 70%. At B-RAF G466V, this compound yielded a DC50 of 1 to 10 nM and a Dmax of 35 to 70%.
For the compound `N#Cc1c(NS(=O)(=O)N2CC[C@@H](F)C2)ccc(F)c1Oc1ccc2ncn(-c3ccc(N4CC(CN5CC(c6ccc7c(c6)CN([C@H]6CCC(=O)NC6=O)C7=O)C5)C4)cc3)c(=O)c2c1` [Example 204], the DC50 lay within 50 to 500 nM at B-RAF V600E and 1 to 10 nM at B-RAF G466V. The greatest degradation seen (Dmax) at B-RAF V600E is 35 to 70%; on B-RAF G466V, at most 35%.
In the case of `N#Cc1c(NS(=O)(=O)N2CC[C@@H](F)C2)ccc(F)c1Oc1ccc2ncn(-c3ccc(N4CC(CN5CC(c6ccc7c(c6)CN([C@@H]6CCC(=O)NC6=O)C7=O)C5)C4)cc3)c(=O)c2c1` [Example 205, (3R)-N-(2-cyano-3-{[3-(4-{3-[(3-{2-[(3R)-2,6-dioxopiperidin-3-yl]-1-oxo-2,3-dihydro-1H-isoindol-5-yl}azetidin-1-yl)methyl]azetidin-1-yl}phenyl)-4-oxo-3,4-dihydroquinazolin-6-yl]oxy}-4-fluorophenyl)-3-fluoropyrrolidine-1-sulfonamide], at B-RAF V600E, the DC50 was 50 to 500 nM and the Dmax was at most 35%. At B-RAF G466V, this compound returned a DC50 of 1 to 10 nM and a Dmax of at most 35%.
